Patent US20040084383A1, “Method to inhibit growth of microorganisms in aqueous systems and on substrates using a persulfate and a bromide” (BUCKMAN LABORATORIES INTERNATIONAL, INC., priority 2002, published 2004)

Tested on: Pseudomonas aeruginosa
Test: Antimicrobial efficacy in inoculated pulp slurry (24 hr incubation, plated in nutrient agar, cfu/ml counted)
Assay type: cell-based
Protocol: A concentrated solution of active biocidal composition was prepared by mixing 44% (w/v) of aqueous ammonium persulfate with 40% (w/v) aqueous sodium bromide in equal volume. The final mixture contains 22% ammonium persulfate and 20% NaBr at pH 2.2. The molar ratio of the components was 1:2 for (NH4)2S2O8:NaBr. Four hours after mixing, the concentrated solution was diluted with water to contain 5% ammonium persulfate. This diluted solution (5%) was then added to 50 ml pulp slurry to give a biocidal concentration of 10 ppm (as ammonium persulfate) in pulp slurry. The pulp slurry was then inoculated with 3×10^6 cells/ml of Pseudomonas aeruginosa, incubated at room temperature for 24 hr, plated in nutrient agar. The colony forming units per milliliter (cfu/ml) was counted and compared with each individual component acting alone.
The pulp slurry contains white bleached dry pulp at 5 g/L; cationic starch at 10 bl/ton dry pulp; CaCO3 at 300 bl/ton dry pulp; ASA size at 3-4 lb/ton dry pulp; retention aids at 0.5-1.0 bl/ton dry pulp; defoamer at 250 g/ton dry pulp. The pulp slurry has a consistency of about 0.5 to 0.7%. The final pH of the pulp substrate after autoclave is about 8.0. […] Neither component acting alone provides significant antimicrobial efficacy.
The antimicrobial efficacy of the mixture containing 22% (w/v) aqueous ammonium persulfate and 20% (w/v) aqueous NaBr was tested at different times after mixing, aging times. The mixture preparation, at pH 2.2, and the test system are the same as that described in Example 1. At each time, a portion of the mixture was taken and diluted to 5% (as ammonium persulfate). The diluted solution was then added to pulp slurry to give a final concentration of 5, 10, 20, and 40 ppm (as ammonium persulfate) in pulp slurry. […] At only 5 ppm level, it achieved 2.5 logs reduction, which represents greater than 99% kill. […] It requires about 4 hr to provide significant activity. At about 8 hr after mixing, the mixed solution reached the maximum activity. The biocidal efficacy of the mixture was maintained or stabilized for at least 7 days.
Three mixtures were generated. Mixture #1 was prepared by mixing 22% (NH4)2S2O8 with 20% NaBr in equal volume. The final concentrations in mixture #1 were 11% (NH4)2S2O8 and 10% NaBr. Mixture #2 was made by mixing 33% (NH4)2S2O8 with 30% NaBr in equal volume. The final concentrations in Mixture #2 were 16.5% (NH4)2S2O8 and 15% NaBr. Mixture #3 was prepared by mixing 44% (NH4)2S2O8 with 40% NaBr in equal volume. In the final solution, Mixture #3 contains 22% (NH4)2S2O8 and 20% NaBr. All three mixtures, having a pH 2.2, were tested at a dosage of 20 ppm, and at 1, 2, 4, and 8 hr after mixing for their antimicrobial activity in the pulp slurry described in Example 1. […]

[1] = 1000 ppm as pure compound in pulp slurry
[2] = 100 ppm as pure compound in pulp slurry

| Compound | CFU/ml [1] | Log Reduction [1] | CFU/ml [2] | Log Reduction [2] |
| --- | --- | --- | --- | --- |
| [Br-].[Na+] [NaBr, sodium bromide] | 4.2 × 10^6 CFU/ml | 0.00 |  |  |
| N.N.O=S(=O)(O)OOS(=O)(=O)O [(NH4)2S2O8, ammonium persulfate] |  |  | 4.5 × 10^5 CFU/ml | 0.97 |
